“Also recorded” adds a separate entry of the source.
What was measured:
[1] = system: bleomycin-induced pulmonary fibrosis; assay: Collagen content in lung tissue, bleomycin pulmonary fibrosis model; format: in vivo, mice; details: 3-CP 150 mg/kg daily intranasal, 14 days, FIG. 20
Experimental: Bronchoalveolar lavage (BAL) fluid (also referred to herein as “BALf”) and bronchial submucosal inflammation are characteristic features of asthma. Mice were euthanized with an overdose of 50 mg/kg pentobarbital and ice-cold phosphate buffer saline (PBS) (0.6 ml) was instilled into the lungs. BAL fluid was obtained by three aspirations via tracheal cannulation, centrifuged, and the supernatant collected and stored at −70° C. Cell pellets were re-suspended in PBS and 100 μl aliquots placed onto slides and centrifuged (200 g, 4° C., 10 minutes) in a cytospin machine. Induction of oxidative stress was evaluated using a 2′,7′-dichlorofluorescein fluorescence assay, and total IgE, IgG2a, panel of cytokines, transforming growth factors, collagen, protein nitration and lipid peroxidation were measured using commercial kits according to the manufacturer's recommendations. A Sircol™ collagen assay kit was obtained from Biocolor Life Sciences Assays, a protein nitration assay kit was obtained from Abcam, and other assay kits were obtained from PeproTech Asia. […]
The degree of fibrosis was evaluated by measuring collagen content in lung tissue.

[2] = Toxicity / maximally tolerated dose in mice; format: in vivo; details: administered orally or via IP injection to untreated OVA-challenged mice for 22 days
Experimental: (§1) 3-CP was also administered using 3 daily intraperitoneal (IP) injections (200 μl, 0.15 M, ˜300 mg/kg) 0.5 hour prior to the challenge with OVA aerosol, or by nasal instillation (50 μl, 0.3 M, ˜150 mg/kg) twice a day 0.5 hour prior to the challenge with OVA aerosol and 6 hours later without exceeding its maximally tolerated dose, which has been previously established to be 300-500 mg/kg. Both 3-CP and TPL were non-toxic when administered orally or via IP injection to untreated OVA-challenged mice for 22 days.

TGF-β1 = TGF-β1 level in OVA asthma model; format: in vivo, BALB/c mice
Experimental: (§2) All experimental procedures were carried out in accordance with the NIH Guidelines for the Care and Use of Laboratory Animals. Specific pathogen-free (SPF) male BALB/c mice (6-7 weeks of age, 18-22 grams), routinely screened serologically for relevant respiratory pathogens, were maintained in an animal housing facility for 1 week before use and given access to food and water ad libitum. Animals were randomly assigned to the indicated experimental groups, and sensitized with two intraperitoneal (IP) injections (20 μg ovalbumin (OVA) emulsified in 2 mg aluminum hydroxide (an adjuvant) in 200 μl phosphate buffer saline (PBS), pH 7.4), on days 1 and 10.
(§3) After another week, the animals were challenged by exposure to ovalbumin (OVA) aerosol (1%, w/v, in PBS) for 30 minutes each day on days 17, 18 and 19, in order to elicit an inflammatory reaction in the lungs characterized by airway hyper-responsiveness (AHR), an influx of inflammatory cells (particularly eosinophils), and increased pulmonary levels of various cytokines and transforming growth factors, protein nitration and lipid peroxidation.
(§4) Bronchoalveolar lavage (BAL) fluid (also referred to herein as “BALf”) and bronchial submucosal inflammation are characteristic features of asthma. Mice were euthanized with an overdose of 50 mg/kg pentobarbital and ice-cold phosphate buffer saline (PBS) (0.6 ml) was instilled into the lungs. BAL fluid was obtained by three aspirations via tracheal cannulation, centrifuged, and the supernatant collected and stored at −70° C. Cell pellets were re-suspended in PBS and 100 μl aliquots placed onto slides and centrifuged (200 g, 4° C., 10 minutes) in a cytospin machine. Induction of oxidative stress was evaluated using a 2′,7′-dichlorofluorescein fluorescence assay, and total IgE, IgG2a, panel of cytokines, transforming growth factors, collagen, protein nitration and lipid peroxidation were measured using commercial kits according to the manufacturer's recommendations. A Sircol™ collagen assay kit was obtained from Biocolor Life Sciences Assays, a protein nitration assay kit was obtained from Abcam, and other assay kits were obtained from PeproTech Asia.
The efficacy of oral administration of 3-CP (1 weight percent in chow) during the sensitization period and/or challenge period was then compared to IP injection (˜300 mg/kg, 0.5 hour before the OVA challenge) or intranasal instillation (˜150 mg/kg, 0.5 hour before the OVA and 6 hours later) of 3-CP, as well as to dexamethasone treatment (1 mg/kg, 3 daily IP injections, 0.5 hour prior to the challenge with OVA aerosol).
In order to assess the effect of 3-CP on inflammatory signaling pathways, […] to procedures described hereinabove, upon oral, intranasal or IP administration of 3-CP.

[3] = system: ovalbumin-induced murine model of asthma; assay: Inflammatory cell counts in BAL fluid in OVA asthma model; format: in vivo, BALB/c mice
Experimental: as §2, §3
The features of allergic inflammation typically reached their peak a day or two after the final exposure. Mice were then subjected to one of the following treatments: (i) sham-sensitization plus challenge with PBS; (ii) positive control-sensitization plus challenge with OVA; (iii) sensitization plus challenge with OVA and various indicated treatments (e.g., with nitroxide or dexamethasone), including different modes (oral, IP, intranasal, inhalation), time windows (sensitization stage, challenge stage, both stages and after the last challenge), and doses of nitroxide administration.
as §4
Control and experimental groups contained 10 mice each. The effects of the nitroxides were investigated by feeding the mice ad libitum a diet of nitroxide-containing chow (1 weight percent) during both ovalbumin (OVA)-induced sensitization and challenging periods (days −2-19), during the sensitization period (days −2-11) or challenge period (days 13-19). Nitroxide-containing chow were prepared by dissolving 500 grams chow in a minimum volume of water containing 5 grams nitroxide and 5 grams commercial chicken soup powder, preparing the chow and drying it at 37° C. (animals were reluctant to eat nitroxide-containing chow until chicken soup powder was added).
as §1, with “days. […]” for “days.”

[4] = oral, 1 weight percent in chow, FIG. 4

CC1(C)CC(C(N)=O)C(C)(C)N1[O] (stereo not drawn) [3-CP, 3-Carbamoyl-2,2,5,5-tetramethyl-pyrrolidin-1-oxyl]
effect on bleomycin-induced pulmonary fibrosis, pulmonary collagen content [1]: significantly inhibited
toxicity [2]: non-toxic
effect on OVA-induced increase in the level of TGF-β1 (TGF-β1; FIG. 7E and Table 1): inhibited
reducing TGF-β1 level, oral 3-CP compared with intranasal 3-CP and IP dexamethasone (TGF-β1; FIG. 7E and Table 1): more effective than intranasal instillation of 3-CP and IP injection of dexamethasone
TGF-β1 level (TGF-β1; OVA IP-C: 3-CP intraperitoneal during challenge): 0.88 ± 0.05 ng/mg
TGF-β1 level (TGF-β1; OVA oral-C: 3-CP oral during challenge): 0.72 ± 0.08 ng/mg
TGF-β1 level (TGF-β1; OVA oral-S&C: 3-CP oral during sensitization and challenge): 0.73 ± 0.07 ng/mg
TGF-β1 level (TGF-β1; OVA oral-S: 3-CP oral during sensitization): 0.76 ± 0.02 ng/mg
modulating TGF-β1 level, oral compared with IP 3-CP (TGF-β1; oral administration vs IP injection): consistently more effective than IP injection of 3-CP
levels of inflammatory cells, oral 3-CP in both periods compared with other regimens ([3]; oral 1 weight percent in chow during sensitization and challenge periods, FIG. 5): more effective than IP injection or intranasal instillation of 3-CP, oral administration of 3-CP during the sensitization period or challenge period alone, or treatment with dexamethasone; also recorded: more effective than treatment with dexamethasone
BAL inflammatory cell/eosinophil count attenuation, 3-CP compared with TPL [3, 4]: considerably more effective than TPL
effect on OVA-induced increase in total inflammatory cell and eosinophil counts in BAL fluid [3, 4]: attenuated the increase in total inflammatory cell counts and eosinophil counts
